Test results reported in patent US5965717A, “Organic pigments from twisted benzidines” (North Carolina State University, priority 1997, dated 1999).

Legend:
[1] = system: Salmonella typhimurium strains, TA98 and TA100; assay: Ames test (Salmonella mammalian microsome mutagenicity assay), with and without rat liver S9; assay type: cell-based; conditions: presence and absence of metabolic activation (rat liver S9)
From the text: (§1) The most widely accepted mutagenicity screening test procedure for amines is the Salmonella mammalian microsome mutagenicity assay developed by Ames et al. (Mutat. Res., 31 (1975) 347), hereinafter referred to as the Ames test. Subsequently, a modification of the Ames test was introduced by Prival et al. (Mutat. Res., 97 (2) (1982) 103) specifically for evaluating the mutagenicity of azo compounds, hereinafter referred to as the Prival modification. For a general discussion of mutagenicity as it pertains to colored materials, see, for instance, Freeman et al., Genotoxicity of Azo Dyes: Bases and Implications, Physico-Chemical Principles of Color Chemistry, Advances in Color Chemistry Series, Vol. 4, ed. by A. T. Peters and H. S. Freeman (Blackie Academic Press: Glasgow, 1996) 254-291; Freeman et al., Dyes Pigm. 8 (6) (1987) 431-47; and Freeman et al., CHEMTECH, July (1991), 438-445.
(§2) Mutagenicity testing of the pure derivatives of benzidine was performed using the standard Ames test, as described by Ames et al. (Mutat. Res., 31 (1975) 347). Mutagenicity testing of the various pigments was performed using the standard Ames test, and also using the Prival modification, as described by Prival et al. (Mutat. Res., 97 (2) (1982) 103).
(§3) More particularly, two Salmonella typhimurium strains, TA98 and TA100, were employed for mutagenicity testing. All benzidine derivatives and the pigments made therefrom were evaluated in the presence and absence of metabolic activation. In the Ames test, metabolic activation was achieved using rat liver S9, whereas hamster liver S9 was employed in the Prival modification. A mutagenic response was recorded for a test compound if the number of revertant colonies counted was more than twice the number of spontaneous revertant colonies formed in the absence of the test compound. A nonmutagenic response (Ames negative or Prival negative) was recorded when the number of revertant colonies counted was less than twice the number of spontaneous revertant colonies.

[2] = system: Salmonella typhimurium strains, TA98 and TA100; assay: Prival modification of the Ames test, with and without hamster liver S9; assay type: cell-based; conditions: presence and absence of metabolic activation (hamster liver S9)
From the text: as §1, §2, §3

Salmonella = conditions: cited from earlier work
[3] = in N,N-dimethylformamide (DMF); cited from earlier work

SMILES | mutagenicity in the Ames test [1] | mutagenicity in the Prival modification [2] | mutagenicity in the Ames test (prior art) (Salmonella) | λmax [3]
CCCOc1cc(-c2cc(OCCC)c(NN=C(C(C)=O)C(=O)Nc3ccccc3)cc2C)c(C)cc1NN=C(C(C)=O)C(=O)Nc1ccccc1 [Pigment 95] | negative (the number of revertant colonies counted was less than twice the number of spontaneous revertant colonies) | negative (the number of revertant colonies counted was less than twice the number of spontaneous revertant colonies) | – | –
CCCOc1cc(-c2cc(OCCC)c(NN=C(C(C)=O)C(=O)Nc3ccccc3OC)cc2OC)c(OC)cc1NN=C(C(C)=O)C(=O)Nc1ccccc1OC [Pigment 98] | negative (the number of revertant colonies counted was less than twice the number of spontaneous revertant colonies) | negative (the number of revertant colonies counted was less than twice the number of spontaneous revertant colonies) | – | –
Cc1cc(-c2ccc(N)c(C)c2)ccc1N [3,3'-dimethylbenzidine] | – | – | mutagenic | –
CCCOc1cc(-c2cc(OCCC)c(NN=C3C(=O)N(c4ccccc4)N=C3C)cc2C)c(C)cc1NN=C1C(=O)N(c2ccccc2)N=C1C [Pigment 108] | negative (the number of revertant colonies counted was less than twice the number of spontaneous revertant colonies) | negative (the number of revertant colonies counted was less than twice the number of spontaneous revertant colonies) | – | –
COc1ccccc1NN=C(C(C)=O)C(=O)Nc1ccccc1 [compound 2] | – | – | – | 392 nm
CCCOc1cc(-c2cc(OCCC)c(N=CC3C(=O)NC(=S)NC3=O)cc2C)c(C)cc1N=CC1C(=O)NC(=S)NC1=O [Pigment 93] | negative (the number of revertant colonies counted was less than twice the number of spontaneous revertant colonies) | negative (the number of revertant colonies counted was less than twice the number of spontaneous revertant colonies) | – | –
COc1cc(-c2ccc(NN=C(C(C)=O)C(=O)Nc3ccccc3)c(OC)c2)ccc1NN=C(C(C)=O)C(=O)Nc1ccccc1 [compound 1] | – | – | – | 445 nm
Nc1ccc(-c2ccc(N)c(Cl)c2)cc1Cl [3,3'-dichlorobenzidine] | – | – | mutagenic | –
CCCOc1cc(-c2cc(OCCC)c(N)cc2OC)c(OC)cc1N [compound 26, 2,2'-dimethoxy-5,5'-dipropoxybenzidine] | Ames negative (the number of revertant colonies counted was less than twice the number of spontaneous revertant colonies) | – | – | –
CCCOc1cc(-c2cc(OCCC)c(NN=C(C(C)=O)C(=O)Nc3ccc4[nH]c(=O)[nH]c4c3)cc2C)c(C)cc1NN=C(C(C)=O)C(=O)Nc1ccc2[nH]c(=O)[nH]c2c1 [Pigment 113] | negative (the number of revertant colonies counted was less than twice the number of spontaneous revertant colonies) | negative (the number of revertant colonies counted was less than twice the number of spontaneous revertant colonies) | – | –
Cc1cc(-c2cc(C)c(N)c(C)c2)cc(C)c1N [3,5,3',5'-tetramethylbenzidine] | – | – | nonmutagenic | –
COc1cc(-c2ccc(N)c(OC)c2)ccc1N [3,3'-dimethoxybenzidine] | – | – | mutagenic | –
CCCOc1cc(-c2cc(OCCC)c(NN=C(C(C)=O)C(=O)Nc3ccccc3OC)cc2Cl)c(Cl)cc1NN=C(C(C)=O)C(=O)Nc1ccccc1OC [Pigment 107] | negative (the number of revertant colonies counted was less than twice the number of spontaneous revertant colonies) | negative (the number of revertant colonies counted was less than twice the number of spontaneous revertant colonies) | – | –
CCCOc1cc(-c2cc(OCCC)c(N)cc2C)c(C)cc1N [compound 12, 2,2'-dimethyl-5,5'-dipropoxybenzidine] | Ames negative (the number of revertant colonies counted was less than twice the number of spontaneous revertant colonies) | – | – | –
